These results are taken from ChEMBL document CHEMBL1201862, “PubChem BioAssay data set” (2004).

Activity calls are given as the source filed them. Where only a bound is given, the exact number is not on record here.

Assay [1] addresses Perilipin-1/ABHD5 (Homo sapiens, UniProt O60240+Q8WTS1). The assay is described as follows: Luminescence-based biochemical high throughput dose response assay for inhibitors of the interaction of the lipase co-activator protein, abhydrolase domain containing 5 (ABHD5) with perilipin-1 (PLIN1) (2K validation set). [Related pubchem assays (depositor defined):AID493027, AID493057].

Assay [2] concerns the target 1-acylglycerol-3-phosphate O-acyltransferase ABHD5/Perilipin-5 (Homo sapiens, UniProt Q00G26+Q8WTS1). The assay is described as follows: Luminescence-based biochemical high throughput dose response assay for inhibitors of the interaction of the lipase co-activator protein, abhydrolase domain containing 5 (ABHD5) with perilipin-5 (MLDP; PLIN5) (2K validation set). [Related pubchem assays (depositor defined):AID493035, AID493241].

Assay [3] has as its target Integrin alpha-L (Mus musculus, UniProt P24063). The experiment in a line: modulators of CD8 T cell-vesicle binding, dose response, powder samples, mouse 2C CD8+ cells (AID 504565). It counts as functional.
In assay [4] the test system is Vero. The assay is described as follows: Vero cell cytotoxicity, cytotoxicity control for flavivirus capping enzyme inhibitors (AID 588742). To be noted: Chlorocebus sabaeus. It counts as functional.
Assay [5] concerns the target Genome polyprotein (dengue virus type 2, UniProt P29990). The assay is described as follows: Dengue-2 NS5 methyltransferase inhibitors, primary screen, biochemical, confirmation dose response (AID 588689). It counts as functional.
For assay [6], the target named is Troponin, cardiac muscle (Homo sapiens, UniProt P19429+P45379+P63316). The experiment in a line: inhibitors of cardiac thin filament calcium sensitivity, dose response, biochemical, fluorescence, cardiac regulated thin filaments, triplicate IC50 (AID 504742). In kind it is protein-complex assay.
The target in assay [7] is T1, Small ubiquitin-related modifier 1 (Homo sapiens, UniProt P63165). The experiment in a line: inhibitors of SUMO1 partner interactions, dose response, biochemical, FRET (AID 624383). In kind it is functional. The note with it: read-out: IC50_Mean.
Assay [8] has as its target T1, Small ubiquitin-related modifier 1. The experiment in a line: inhibitors of SUMO1 peptide binding, dose response, biochemical, fluorescence polarization, uHTS hits (AID 624382). In kind it is functional. To be noted: read-out: IC50_Mean. On the technique in general: In fluorescence polarisation assays a small probe gives low polarisation when free and higher when bound to something large.

The target in assay [9] is T2, Replicative DNA helicase DnaB (Mycobacterium tuberculosis, UniProt P9WMR3).
T2 sequence (P9WMR3 whole entry): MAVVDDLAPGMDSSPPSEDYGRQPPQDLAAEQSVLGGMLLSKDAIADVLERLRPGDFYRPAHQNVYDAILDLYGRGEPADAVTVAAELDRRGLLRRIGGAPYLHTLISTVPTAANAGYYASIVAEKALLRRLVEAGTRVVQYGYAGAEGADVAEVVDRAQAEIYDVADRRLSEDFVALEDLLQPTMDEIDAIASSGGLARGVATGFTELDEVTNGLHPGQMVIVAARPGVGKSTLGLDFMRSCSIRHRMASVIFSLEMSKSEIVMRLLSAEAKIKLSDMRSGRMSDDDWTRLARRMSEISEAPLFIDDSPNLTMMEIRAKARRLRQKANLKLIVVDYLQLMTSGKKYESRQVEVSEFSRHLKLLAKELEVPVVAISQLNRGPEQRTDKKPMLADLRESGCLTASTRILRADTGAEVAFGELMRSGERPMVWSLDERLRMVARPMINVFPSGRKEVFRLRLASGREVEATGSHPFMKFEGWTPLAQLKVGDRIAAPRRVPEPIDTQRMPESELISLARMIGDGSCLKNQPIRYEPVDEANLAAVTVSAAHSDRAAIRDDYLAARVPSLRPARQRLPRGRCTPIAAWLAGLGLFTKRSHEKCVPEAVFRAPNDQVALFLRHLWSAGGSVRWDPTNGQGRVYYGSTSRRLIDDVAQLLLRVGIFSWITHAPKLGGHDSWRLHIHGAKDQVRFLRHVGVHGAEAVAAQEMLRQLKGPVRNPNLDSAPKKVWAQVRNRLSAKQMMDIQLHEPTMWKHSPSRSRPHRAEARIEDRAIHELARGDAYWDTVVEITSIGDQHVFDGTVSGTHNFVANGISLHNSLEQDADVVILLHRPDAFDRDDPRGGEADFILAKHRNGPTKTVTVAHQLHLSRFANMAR
The assay is described as follows: DnaB intein splicing inhibitors, dose response, biochemical, cell-free fluorescence (AID 449749). In kind it is functional.

Assay [10] concerns the target Dual specificity tyrosine-phosphorylation-regulated kinase 1A (Rattus norvegicus, UniProt Q63470). It counts as biochemical, Homo sapiens.
The target of assay [11] is T3, Small ubiquitin-related modifier 2 (Homo sapiens, UniProt P61956). The experiment in a line: inhibitors of SUMO2 protein-protein interaction, dose response, selectivity assay for SUMO1 interaction inhibitor project, biochemical, FRET, human SUMO2, uHTS hits (AID 624384). In kind it is functional. The note with it: read-out: IC50_Mean.
Assay [12] deals with T3, Small ubiquitin-related modifier 2. The assay is described as follows: SUMO2–SIM peptide binding inhibitors, dose response, selectivity assay for SUMO1 interaction inhibitor project, biochemical, fluorescence polarization, uHTS hits (AID 624385). It counts as functional. The note with it: read-out: IC50_Mean.
Assay [13] deals with T4, Protein RecA (Mycobacterium tuberculosis, UniProt P9WHJ3).
T4 sequence (P9WHJ3 whole entry): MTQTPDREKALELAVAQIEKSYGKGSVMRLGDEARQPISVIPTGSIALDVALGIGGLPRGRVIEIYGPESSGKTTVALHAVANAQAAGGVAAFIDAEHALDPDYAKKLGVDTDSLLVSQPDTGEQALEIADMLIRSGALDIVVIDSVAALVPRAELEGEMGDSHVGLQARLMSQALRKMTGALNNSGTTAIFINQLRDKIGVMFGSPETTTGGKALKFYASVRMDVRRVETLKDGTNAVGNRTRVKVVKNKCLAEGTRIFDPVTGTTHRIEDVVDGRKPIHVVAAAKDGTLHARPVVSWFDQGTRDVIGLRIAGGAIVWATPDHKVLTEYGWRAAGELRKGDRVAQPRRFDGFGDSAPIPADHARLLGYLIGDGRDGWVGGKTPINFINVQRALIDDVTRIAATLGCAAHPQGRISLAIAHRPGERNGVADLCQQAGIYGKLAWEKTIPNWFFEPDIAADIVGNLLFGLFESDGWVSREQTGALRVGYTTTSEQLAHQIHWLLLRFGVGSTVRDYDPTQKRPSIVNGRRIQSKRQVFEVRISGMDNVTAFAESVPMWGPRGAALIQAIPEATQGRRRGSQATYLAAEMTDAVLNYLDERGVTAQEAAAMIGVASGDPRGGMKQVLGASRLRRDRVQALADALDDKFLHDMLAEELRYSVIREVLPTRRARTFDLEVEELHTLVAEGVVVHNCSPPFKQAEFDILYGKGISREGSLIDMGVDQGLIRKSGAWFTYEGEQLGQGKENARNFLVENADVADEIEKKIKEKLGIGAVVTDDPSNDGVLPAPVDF
The assay is described as follows: Fluorescence Cell-Free Homogeneous Dose Retest to Identify Inhibitors of RecA-Intein Splicing Activity. [Related pubchem assays (depositor defined):AID2097, AID2223, AID489010, AID492950]. It counts as functional.

Assay [14] is described as follows: HIV-1 Env-mediated cell fusion inhibitors, dose response, CCR5-tropic Env (AID 2279). In kind it is functional.
In assay [15] the target is Mu-type opioid receptor (Homo sapiens, UniProt P35372). The assay is described as follows: SAR Analysis of Antagonists of the MOR Receptor using an Image-Based Assay - Set 3. [Related pubchem assays (depositor defined):AID1777, AID1785, AID1786, AID1966, AID2133, AID2136, AID2284, AID2285, AID2420]. In kind it is functional.
In assay [16] the target is T5, Kappa-type opioid receptor (Homo sapiens, UniProt P41145). The experiment in a line: SAR analysis of Antagonists of the Kappa Opioid Receptor (KOR) using an Image-Based Assay - Set 3. [Related pubchem assays (depositor defined):AID1777, AID1785]. In kind it is functional.
In assay [17] the target is T5, Kappa-type opioid receptor. The assay is described as follows: SAR analysis of small molecule antagonists of the kappa opioid receptor via a luminescent beta-arrestin assay - Set 3. [Related pubchem assays (depositor defined):AID1777, AID1778, AID1785, AID1786, AID1966, AID2133, AID2136, AID2285, AID2495]. It counts as functional.
The target of assay [18] is Delta-type opioid receptor (Homo sapiens, UniProt P41143). The experiment in a line: SAR Analysis of Antagonists of the DOR Receptor using an Image-Based Assay - Set 3. [Related pubchem assays (depositor defined):AID1777, AID1785]. It counts as functional.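 Also: U2OS cells expressing DOR1 and beta-arrestin GFP stimulated with 100 nM SNC80; imaging of GFP-tagged beta-arrestin moving into spots after receptor activation.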
Assay [19] has as its target CAAX prenyl protease 2 (Saccharomyces cerevisiae S288c, UniProt Q03530). In kind it is biochemical.
Assay [20] deals with Alkaline phosphatase, placental type (Homo sapiens, UniProt P05187). The assay is described as follows: PLAP enzyme inhibitors, confirmation, biochemical, luminescence (AID 1512). It counts as functional.
For assay [21], the target named is T6, Alkaline phosphatase, tissue-nonspecific isozyme (Homo sapiens, UniProt P05186).
T6 sequence (P05186 whole entry): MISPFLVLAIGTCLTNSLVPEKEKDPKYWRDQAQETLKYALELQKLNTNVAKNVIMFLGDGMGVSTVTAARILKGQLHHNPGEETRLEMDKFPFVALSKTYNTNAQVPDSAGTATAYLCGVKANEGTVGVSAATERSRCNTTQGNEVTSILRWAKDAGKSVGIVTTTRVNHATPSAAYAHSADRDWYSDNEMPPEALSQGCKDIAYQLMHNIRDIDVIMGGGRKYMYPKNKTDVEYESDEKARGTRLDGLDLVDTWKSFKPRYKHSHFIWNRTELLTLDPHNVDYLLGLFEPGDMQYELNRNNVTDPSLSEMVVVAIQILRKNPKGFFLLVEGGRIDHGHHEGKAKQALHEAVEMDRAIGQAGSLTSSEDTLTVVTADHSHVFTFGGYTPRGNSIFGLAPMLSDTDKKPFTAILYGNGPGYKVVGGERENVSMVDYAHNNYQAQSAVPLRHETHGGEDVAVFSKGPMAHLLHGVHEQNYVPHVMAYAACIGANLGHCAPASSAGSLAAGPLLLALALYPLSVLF
The assay is described as follows: human TNAP enzyme inhibitors, SAR follow-up, biochemical, luminescent, dose response (AID 1056).

The target of assay [22] is Hexokinase (Trypanosoma brucei, UniProt Q38C41). The assay is described as follows: Confirmation assay for inhibitors of Trypanosoma brucei hexokinase 1-Analogue-first series. [Related pubchem assays (depositor defined):AID1430, AID1632, AID2516, AID2560, AID2579, AID2600, AID449725, AID492951]. It counts as functional.
The target in assay [23] is T7, Mannose-6-phosphate isomerase (Homo sapiens, UniProt P34949).
T7 sequence (P34949 whole entry): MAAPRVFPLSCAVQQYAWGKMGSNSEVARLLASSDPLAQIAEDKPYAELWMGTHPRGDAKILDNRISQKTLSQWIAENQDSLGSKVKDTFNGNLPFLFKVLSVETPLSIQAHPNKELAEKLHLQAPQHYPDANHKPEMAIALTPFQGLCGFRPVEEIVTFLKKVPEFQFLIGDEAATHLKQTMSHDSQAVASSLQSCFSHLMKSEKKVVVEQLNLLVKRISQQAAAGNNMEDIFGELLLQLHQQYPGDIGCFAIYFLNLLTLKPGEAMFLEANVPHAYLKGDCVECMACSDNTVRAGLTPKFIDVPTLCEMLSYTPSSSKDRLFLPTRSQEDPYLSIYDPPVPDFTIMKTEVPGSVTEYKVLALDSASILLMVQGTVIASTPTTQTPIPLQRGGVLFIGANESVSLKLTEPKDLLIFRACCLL
The experiment in a line: PMI enzyme inhibitors, confirmation, biochemical, fluorescence intensity (AID 1535).

Assay [24] deals with Phosphomannomutase 2 (Homo sapiens, UniProt O15305). The assay is described as follows: Counter screen SAR assay for PMM2 inhibitors via a fluorescence intensity assay. [Related pubchem assays (depositor defined):AID1545, AID1574]. For orientation: A counterscreen serves to expose hits that act by an unwanted route or on another target.

Turning to `O=C(CN1CC[n+]2c(-c3cccs3)csc21)c1ccc(Br)cc1`, the IC50 in assay [1] was 27.5 µM (inactive); in assay [2], 14.8 µM (inactive).

Consider `Cc1ccccc1C(=O)N1CCC(C(=O)Nc2ccc(C)c(S(=O)(=O)N3CCCCC3)c2)CC1`, for which, in assay [3], the EC50 (usually the concentration giving half of the maximal effect) was 29.1 µM (inactive).

On to `O=[N+]([O-])c1cc([N+](=O)[O-])c2oc(-c3ccccc3)c(Br)c2c1O`, for which the CC50 – broadly, the concentration giving 50% cytotoxicity – in assay [4] was 17.9 µM (active). The IC50 was 43.8 µM (active) in assay [5]; > 23.8 µM (inactive) in [6]; 50.9 µM (inactive) in [7]; 4.09 µM (active) in assay [8]; > 66 µM (inactive) in assay [11]; 3.44 µM (active) in [12]. The IC50 in [14] is 16.3 µM (active). Also, the AC50 (commonly the midpoint of the concentration-response curve, whichever way the signal moves) in assay [9] was 3.08 µM (active); in assay [10], 1.94 µM (active). In addition, the EC50 in [13] was 111 µM (active).

In the case of `CCN(CCNC(=O)c1ccc(CNS(=O)(=O)c2ccc(OC)cc2)cc1)Cc1ccccc1`, the IC50 in assay [15] is 12.6 µM (inactive); in [16] it was 10.8 µM (inactive); in [17], 16.3 µM (inactive); in assay [18], > 32 µM (inactive).

Consider `O=C(CCNC(=O)N1CC(=O)Nc2ccccc21)NCCc1cccc(F)c1`, for which the AC50 in assay [19] was 0.359 µM (active).

With `O=C(NC1(C(Cl)(Cl)Cl)Oc2ccccc2O1)OCN1C(=O)C2C=CC=CC2C1=O` (centres undefined), the IC50 in assay [20] and in [21] was > 100 µM (inactive) in each case.

With `CC(C)(C)c1ccc(C(=O)Nc2cc(Cl)ccc2-c2nnn[nH]2)cc1`, the IC50 in [22] was 3.46 µM (active).

Regarding `Cc1csc(-n2sc3ccccc3c2=O)n1`, the IC50 in [23] is > 50 µM (inactive); in assay [24], > 100 µM (inactive).
